This is an account of results in article PMC10591299, “Targeting SHP2 with an Active Site Inhibitor Blocks Signaling and Breast Cancer Cell Phenotypes” (ACS Bio & Med Chem Au, 2023).

For experiment [1], the target named is T1, SHP2 (Homo sapiens, UniProt Q06124).
T1 construct: the GST fusion of the PTP domains of SHP2, SHP1, and PTP1B were produced and purified as reported by us previously; GST; made in house
T1 sequence (Q06124 247-517 limits assumed): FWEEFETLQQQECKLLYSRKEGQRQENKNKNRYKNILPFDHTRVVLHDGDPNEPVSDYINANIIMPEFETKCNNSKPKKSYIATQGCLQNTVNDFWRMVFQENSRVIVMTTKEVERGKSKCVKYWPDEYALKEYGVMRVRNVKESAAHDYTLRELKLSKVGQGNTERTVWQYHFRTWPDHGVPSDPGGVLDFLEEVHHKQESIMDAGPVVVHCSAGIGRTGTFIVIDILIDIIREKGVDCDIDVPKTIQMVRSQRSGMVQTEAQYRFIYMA
In words: PTPase assay, GST-fusion PTP domain of SHP2, DiFMUP substrate. The experiment is classed as biochemical. The following applies: for fold difference: SHP2 IC50 relative to CNBCA. The procedure:
After completion of synthesis, both CNBCA and CNBBA were purified on silica gel, and purity was determined by HPLC. The purified compounds were then tested for their effect on the SHP2 enzyme activity and on the activity of the selected control PTPs (SHP1 and PTP1B) by the phosphotyrosyl phosphatase (PTPase) assay as described previously.[30],[31] First, the GST fusion of the PTP domains of SHP2, SHP1, and PTP1B were produced and purified as reported by us previously.[32] The reactions were performed in a buffer containing 10 mM Tris-HCl (pH 7.2), 100 mM NaCl, 1 mM EDTA, 1 mM dithiothreitol (DTT), and 0.01% Tween-20. Briefly, CNBCA or CNBBA was added first in a serial dilution ranging from 100 μM to 97 nM followed by the enzymes (SHP2, SHP1, or PTP1B) to a final concentration of 1 nM. After 5 min of incubation at room temperature, the reactions were started by adding the artificial substrate DiFMUP (6,8-difluoro-4-methylumbelliferyl phosphate) to a final concentration of 20 μM for SHP2, 35 μM for SHP1, and 10 μM for PTP1B in a reaction volume of 100 μL; variations in DiFMUP concentrations reflect the reported Km values for the respective PTPs.[33] The complete mixture was incubated at 37 °C for 20 min, and fluorescence intensity was measured by the Synergy 4 plate reader at the excitation and emission wavelengths of 360 and 460 nm, respectively. The half inhibitory concentration (IC50) value of each compound was calculated and plotted using Graphpad Prism software.
We used the PTPase assay described previously[30],[31] to evaluate the effect of the newly synthesized compounds on the enzymatic activity of SHP2, SHP1, and PTP1B. The PTP domains of the indicated proteins were prepared as reported by us recently.[32] The artificial PTP substrate DiFMUP (6,8-Difluoro-4-Methylumbelliferyl Phosphate) was purchased from Invitrogen. The purified proteins were dialyzed into a phosphatase buffer containing 10 mM Tris-HCl ([…]), 100 mM NaCl, 1.0 mM EDTA, 1.0 mM dithiothreitol (DTT), and 0.01% Tween-20. Briefly, the PTPase reactions were performed in 100 μL volume containing 1 nM enzyme, inhibitors in serial dilutions (12 nM to 100 μM), and DiFMUP to a final concentration of 20 μM for SHP2, 35 μM for SHP1, and 10 μM for PTP1B. Differences in DiFMUP concentrations reflect the reported Km values for each PTP.[37] The mixtures were incubated at 37 °C for 20 min and transferred to 96 well plates, and the fluorescence intensity was measured by a Synergy 4 plate reader at the excitation and emission wavelengths of 360 and 460 nm, respectively. Graphpad Prism software was used to calculate the IC50 values.

For experiment [2], the target named is T1, SHP2. Further details: method as in PMID 33043190. The following applies: previously published parent compound, included for comparison; cited from earlier work.
In experiment [3] the target is T2, SHP1 (Homo sapiens, UniProt P29350).
T2 construct: The GST fusion PTP domains of SHP1 and PTP1B were expressed and purified in a fashion similar to that of SHP2; GST; made in house
T2 sequence (P29350 244-515 limits assumed): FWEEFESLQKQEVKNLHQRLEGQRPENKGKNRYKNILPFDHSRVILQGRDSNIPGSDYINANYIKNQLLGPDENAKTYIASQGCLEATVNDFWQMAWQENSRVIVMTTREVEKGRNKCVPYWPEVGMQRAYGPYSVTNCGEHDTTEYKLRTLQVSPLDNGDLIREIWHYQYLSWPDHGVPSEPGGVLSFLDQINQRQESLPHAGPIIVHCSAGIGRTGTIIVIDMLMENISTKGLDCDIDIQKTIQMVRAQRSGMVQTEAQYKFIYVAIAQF
Set-up: method as in PMID 33043190. The conditions noted are these: previously shown; cited from earlier work.

Like-named read-outs stand apart in the source and are kept apart here.

`CCCCCCCCCOc1ccc(-c2ccc(CC(=O)O)cc2)cc1CCCC(=O)O` [CNBBA, 4-(4′-(carboxymethyl)-4-(nonyloxy)-[1,1′-biphenyl]-3-yl) butanoic acid]: the IC50 in experiment [1] (PTP domain, 1 nM enzyme, 20 μM DiFMUP, 37 °C 20 min) came out at 5.1 µM. In addition, the fold difference in experiment [1] was determined as 5.8 fold.

With `CCCCCCCCCOc1c(CCCC(=O)O)cc(-c2ccc(C(=O)O)cc2)cc1CCCC(=O)O` [CNBDA], the fold difference in experiment [1] came out at 5.7 fold. Besides, the IC50 in experiment [2] is 5 µM. Moreover, the “selectivity for inhibition of SHP2 over SHP1” value in experiment [3] was “approximately 25 fold”.

In general, IC50 refers to the concentration at which inhibition is half-maximal.
